According to patent US20240207198A1, “ELECTROSPUN STRUCTURES HAVING A PHARMACEUTICAL AND METHODS OF MAKING AND USING THE SAME” (NFS IP Holdings, LLC, priority 2020, published 2024):
Where a name gives a salt, the structure may show the parent alone.

What was measured:
[1] = Oral vs. sublingual delivery of sildenafil citrate in a porcine model (plasma concentration by HPLC); format: in vivo, Yorkshire pigs; details: sublingual electrospun polyethylene oxide fiber scaffold ("strip") vs oral "pill", 25 mg sildenafil citrate each, representative pig 4-17, FIG. 4
Protocol: Four healthy Yorkshire pigs were selected to receive both oral and sublingual administrations of sildenafil citrate (i.e., each animal received both an oral administration and a sublingual administration separated by 48 hours). For the sublingual administration, a scaffold comprising fibers as described herein was used for each animal. Specifically, the fibers comprised were electrospun using a polymer solution comprising sildenafil citrate and 13 wt % 100,000 molecular weight polyethylene oxide dissolved in dichloromethane. The sildenafil citrate was dispersed within the resulting electrospun polyethylene oxide fibers, as described herein. The resulting electrospun polyethylene oxide fibers comprised 25 wt % sildenafil citrate (relative to the polyethylene oxide mass) and 50 wt % confectionary sugar (i.e., for every 10 mg of polyethylene oxide, 2.5 mg of sildenafil citrate and 5 mg of confectionary sugar were added).
(§1) The scaffold was placed under the tongue of each animal and allowed to dissolve in place. A catheter was placed in the animal's vein and used to withdraw blood at baseline and at 3, 9, 15, 30, 45, 60, and 120 minutes post-administration. […]
Each blood sample was analyzed using HPLC to determine the plasma concentration of sildenafil citrate in ng/mL. […]

[2] = Oral vs. sublingual delivery of cannabidiol in a porcine model (plasma concentration by HPLC); format: in vivo, Yorkshire pigs; details: sublingual electrospun polyethylene oxide fiber scaffold ("strip") vs oral "gummy"; 10 mg cannabidiol each; representative pig 7-18; blood 3-120 min; FIG. 3
Protocol: Four healthy Yorkshire pigs were selected to receive both oral and sublingual administrations of cannabidiol (i.e., each animal received both an oral administration and a sublingual administration separated by 48 hours). For the sublingual administration, a scaffold comprising fibers as described herein was used for each animal. Specifically, the fibers were electrospun using a polymer solution comprising cannabidiol and 13 wt % 100,000 molecular weight polyethylene oxide dissolved in dichloromethane. The cannabidiol was dispersed within the resulting electrospun polyethylene oxide fibers, as described herein. The resulting electrospun polyethylene oxide fibers comprised 40 wt % cannabidiol (relative to the polyethylene oxide mass) and 50 wt % confectionary sugar (i.e., for every 10 mg of polyethylene oxide, 4 mg of cannabidiol and 5 mg of confectionary sugar were added).
as §1
Each blood sample was analyzed using high-performance liquid chromatography (HPLC) to determine the plasma concentration of cannabidiol in ng/mL. […]

SMILES	duration of the higher plasma concentration of sildenafil citrate, sublingual compared to oral administration [1]	plasma concentration of sildenafil citrate, sublingual compared to oral administration ([1]; blood 3-120 min)	plasma concentration of cannabidiol, sublingual compared to oral administration [2]
CCCc1nn(C)c2c(=O)[nH]c(-c3cc(S(=O)(=O)N4CCN(C)CC4)ccc3OCC)nc12 [sildenafil citrate]	maintained the higher plasma concentration over a longer period of time	higher plasma concentration in a shorter period of time	
C=C(C)[C@@H]1CCC(C)=C[C@H]1c1c(O)cc(CCCCC)cc1O [cannabidiol]			higher plasma concentration in a shorter period of time
